Converted amounts (≈) assume the structure as drawn.
Experiments:
HEK293 = experiment: Cytotoxicity against HEK293 cells at 8 ug/ml; format: toxicity, cell-based; conditions: human, dose 8 µg/ml
[1] = Hemolytic activity in mouse RBC at 8 ug/ml incubated for 1 hr; format: toxicity, cell-based, Erythrocyte; conditions: red blood cells (erythrocytes), at 8 µg/mL, read-out: Activity
Erythrocyte = experiment: Hemolytic activity in mouse RBC at 32 ug/ml incubated for 1 hr; format: toxicity, cell-based; conditions: erythrocyte, 1 h, dose 32 µg/ml
Bacillus anthracis = experiment: Antibacterial activity against Bacillus anthracis Sterne F32; format: functional
Escherichia coli = experiment: Antibacterial activity against Escherichia coli MC1061; format: functional
Klebsiella pneumoniae = experiment: Antibacterial activity against Klebsiella pneumoniae ATCC 27736; format: functional
[2] = tested on: Staphylococcus epidermidis; experiment: Antibacterial activity against Staphylococcus epidermidis ATCC 12228; format: functional
Enterobacter cloacae = experiment: Antibacterial activity against Enterobacter cloacae ATCC 13047; format: functional
Pseudomonas aeruginosa = experiment: Antibacterial activity against Pseudomonas aeruginosa ATCC 27853; format: functional
Staphylococcus aureus = experiment: Antibacterial activity against Staphylococcus aureus ATCC 25923; format: functional
Acinetobacter baumannii [3] = experiment: Antibacterial activity against Acinetobacter baumannii ATCC 19606; format: functional
Salmonella enterica = experiment: Antibacterial activity against Salmonella enterica ATCC 14028; format: functional
Acinetobacter baumannii [4] = experiment: Antibacterial activity against Acinetobacter baumannii BAA1605; format: functional

## O=C(NNc1cccc(F)c1)c1cccc(F)n1
HEK293
  Activity: Non-Toxic
[1]
  hemolysis at 1 h, 8 ug/ml: < 10%
Erythrocyte
  Activity: Non-Toxic

## CCC(=O)NNc1cccc(F)c1
HEK293
  Activity: Non-Toxic
[1]
  hemolysis at 1 h, 8 ug/ml: < 10%
Erythrocyte
  Activity: Non-Toxic

## O=C(NNc1ccc(Cl)cc1)c1nc(F)ccc1F
HEK293
  Activity: Non-Toxic
[1]
  hemolysis at 1 h, 8 ug/ml: < 10%
Erythrocyte
  Activity: Non-Toxic

## CCOC(=O)CNNC(=O)c1ccccn1
HEK293
  Activity: Non-Toxic
[1]
  hemolysis at 1 h, 8 ug/ml: < 10%
Erythrocyte
  Activity: Non-Toxic

## O=C(NNc1cccc(F)c1)c1ccco1
HEK293
  Activity: Non-Toxic
[1]
  hemolysis at 1 h, 8 ug/ml: < 10%
Erythrocyte
  Activity: Non-Toxic

## O=C(NNC1CCCCC1)c1ccc(F)cc1F
HEK293
  Activity: Non-Toxic
[1]
  hemolysis at 1 h, 8 ug/ml: < 10%
Erythrocyte
  Activity: Non-Toxic

## O=C(NNc1cccc(F)c1)c1ccc(Br)cn1
HEK293
  Activity: Non-Toxic
[1]
  hemolysis at 1 h, 8 ug/ml: < 10%
Erythrocyte
  Activity: Non-Toxic

## COc1cccc(NNC(=O)c2ccc(F)cn2)c1
HEK293
  Activity: Non-Toxic
Bacillus anthracis
  MIC: > 64 µg/mL
Escherichia coli
  MIC: > 64 µg/mL
Klebsiella pneumoniae
  MIC: > 64 µg/mL
[2]
  MIC: 64 µg/mL (≈ 245 µM)
Enterobacter cloacae
  MIC: > 64 µg/mL
Pseudomonas aeruginosa
  MIC: > 64 µg/mL
Staphylococcus aureus
  MIC: > 64 µg/mL
Acinetobacter baumannii [3]
  MIC: 0.5 µg/mL (≈ 1.91 µM)
Salmonella enterica
  MIC: > 64 µg/mL
[1]
  hemolysis at 1 h, 8 ug/ml: < 10%
Acinetobacter baumannii [4]
  MIC: 0.5 µg/mL (≈ 1.91 µM)
Erythrocyte
  Activity: Non-Toxic

## O=C(NNc1cccc(F)c1)c1ccc(F)cn1
HEK293
  Activity: Non-Toxic
Bacillus anthracis
  MIC: > 64 µg/mL
Escherichia coli
  MIC: 64 µg/mL (≈ 257 µM)
Klebsiella pneumoniae
  MIC: > 64 µg/mL
[2]
  MIC: > 64 µg/mL
Enterobacter cloacae
  MIC: > 64 µg/mL
Pseudomonas aeruginosa
  MIC: > 64 µg/mL
Staphylococcus aureus
  MIC: > 64 µg/mL
Acinetobacter baumannii [3]
  MIC: 0.5 µg/mL (≈ 2.01 µM)
Salmonella enterica
  MIC: > 64 µg/mL
[1]
  hemolysis at 1 h, 8 ug/ml: < 10%
Acinetobacter baumannii [4]
  MIC: 0.5 µg/mL (≈ 2.01 µM)
Erythrocyte
  Activity: Non-Toxic

## O=C(NNc1ccc(Cl)cc1)c1cnc2ccccc2n1
HEK293
  Activity: Non-Toxic
[1]
  hemolysis at 1 h, 8 ug/ml: < 10%
Erythrocyte
  Activity: Non-Toxic

## O=C(NNC1CCCCC1)c1ccc2ccccc2n1
HEK293
  Activity: Non-Toxic
Bacillus anthracis
  MIC: > 64 µg/mL
Escherichia coli
  MIC: 64 µg/mL (≈ 238 µM)
Klebsiella pneumoniae
  MIC: > 64 µg/mL
[2]
  MIC: > 64 µg/mL
Enterobacter cloacae
  MIC: > 64 µg/mL
Pseudomonas aeruginosa
  MIC: > 64 µg/mL
Staphylococcus aureus
  MIC: > 64 µg/mL
Acinetobacter baumannii [3]
  MIC: > 64 µg/mL
Salmonella enterica
  MIC: > 64 µg/mL
[1]
  hemolysis at 1 h, 8 ug/ml: < 10%
Acinetobacter baumannii [4]
  MIC: > 64 µg/mL
Erythrocyte
  Activity: Non-Toxic

## O=C(NNc1cccc(F)c1)c1cccnc1
HEK293
  Activity: Non-Toxic
[1]
  hemolysis at 1 h, 8 ug/ml: < 10%
Erythrocyte
  Activity: Non-Toxic

## O=C(NNC1CCCCC1)c1cnccn1
HEK293
  Activity: Non-Toxic
[1]
  hemolysis at 1 h, 8 ug/ml: < 10%
Erythrocyte
  Activity: Non-Toxic

## O=C(NNc1cccc(F)c1)c1ncc(F)cc1F
HEK293
  Activity: Non-Toxic
[1]
  hemolysis at 1 h, 8 ug/ml: < 10%
Erythrocyte
  Activity: Non-Toxic

## O=C(NNc1ccc(Cl)cc1)c1ccco1
HEK293
  Activity: Non-Toxic
Bacillus anthracis
  MIC: > 64 µg/mL
Escherichia coli
  MIC: 16 µg/mL (≈ 67.6 µM)
Klebsiella pneumoniae
  MIC: 16 µg/mL (≈ 67.6 µM)
[2]
  MIC: 64 µg/mL (≈ 270 µM)
Enterobacter cloacae
  MIC: 4 µg/mL (≈ 16.9 µM)
Pseudomonas aeruginosa
  MIC: > 64 µg/mL
Staphylococcus aureus
  MIC: 64 µg/mL (≈ 270 µM)
Acinetobacter baumannii [3]
  MIC: 0.5 µg/mL (≈ 2.11 µM)
Salmonella enterica
  MIC: 16 µg/mL (≈ 67.6 µM)
[1]
  hemolysis at 1 h, 8 ug/ml: < 10%
Acinetobacter baumannii [4]
  MIC: ≤ 0.125 µg/mL
Erythrocyte
  Activity: Non-Toxic

## O=C(NNc1cccc(F)c1)c1ccccc1
HEK293
  Activity: Non-Toxic
[1]
  hemolysis at 1 h, 8 ug/ml: < 10%
Erythrocyte
  Activity: Non-Toxic

## C=CC(=O)NNc1ccc(Cl)cc1
HEK293
  Activity: Non-Toxic
Bacillus anthracis
  MIC: > 64 µg/mL
Escherichia coli
  MIC: 16 µg/mL (≈ 81.4 µM)
Klebsiella pneumoniae
  MIC: 16 µg/mL (≈ 81.4 µM)
[2]
  MIC: 64 µg/mL (≈ 325 µM)
Enterobacter cloacae
  MIC: 16 µg/mL (≈ 81.4 µM)
Pseudomonas aeruginosa
  MIC: > 64 µg/mL
Staphylococcus aureus
  MIC: 64 µg/mL (≈ 325 µM)
Acinetobacter baumannii [3]
  MIC: 0.25 µg/mL (≈ 1.27 µM)
Salmonella enterica
  MIC: 16 µg/mL (≈ 81.4 µM)
[1]
  hemolysis at 1 h, 8 ug/ml: < 10%
Acinetobacter baumannii [4]
  MIC: 0.25 µg/mL (≈ 1.27 µM)
Erythrocyte
  Activity: Non-Toxic

## O=C(NNc1cccc(F)c1)c1nc(F)ccc1F
HEK293
  Activity: Non-Toxic
[1]
  hemolysis at 1 h, 8 ug/ml: < 10%
Erythrocyte
  Activity: Non-Toxic

## CCOC(=O)CNNC(=O)c1ccc(F)cn1
HEK293
  Activity: Non-Toxic
[1]
  hemolysis at 1 h, 8 ug/ml: < 10%
Erythrocyte
  Activity: Non-Toxic

## O=C(NNc1cccc(Cl)c1)c1ccccn1
HEK293
  Activity: Non-Toxic
Bacillus anthracis
  MIC: > 64 µg/mL
Escherichia coli
  MIC: 4 µg/mL (≈ 16.1 µM)
Klebsiella pneumoniae
  MIC: 16 µg/mL (≈ 64.6 µM)
[2]
  MIC: > 64 µg/mL
Enterobacter cloacae
  MIC: 4 µg/mL (≈ 16.1 µM)
Pseudomonas aeruginosa
  MIC: > 64 µg/mL
Staphylococcus aureus
  MIC: > 64 µg/mL
Acinetobacter baumannii [3]
  MIC: 2 µg/mL (≈ 8.07 µM)
Salmonella enterica
  MIC: 16 µg/mL (≈ 64.6 µM)
[1]
  hemolysis at 1 h, 8 ug/ml: < 10%
Acinetobacter baumannii [4]
  MIC: 1 µg/mL (≈ 4.04 µM)
Erythrocyte
  Activity: Non-Toxic

## O=C(NNc1ccc(Cl)cc1)c1ccc2ccccc2n1
HEK293
  Activity: Non-Toxic
Bacillus anthracis
  MIC: > 64 µg/mL
Escherichia coli
  MIC: 16 µg/mL (≈ 53.7 µM)
Klebsiella pneumoniae
  MIC: > 64 µg/mL
[2]
  MIC: > 64 µg/mL
Enterobacter cloacae
  MIC: > 64 µg/mL
Pseudomonas aeruginosa
  MIC: > 64 µg/mL
Staphylococcus aureus
  MIC: > 64 µg/mL
Acinetobacter baumannii [3]
  MIC: 0.5 µg/mL (≈ 1.68 µM)
Salmonella enterica
  MIC: > 64 µg/mL
[1]
  hemolysis at 1 h, 8 ug/ml: < 10%
Acinetobacter baumannii [4]
  MIC: 0.5 µg/mL (≈ 1.68 µM)
Erythrocyte
  Activity: Non-Toxic

## O=C(NNc1cccc(F)c1)c1ccccn1
HEK293
  Activity: Non-Toxic
[1]
  hemolysis at 1 h, 8 ug/ml: < 10%
Erythrocyte
  Activity: Non-Toxic

## CCC(=O)NNc1ccc(Cl)cc1
HEK293
  Activity: Non-Toxic
Bacillus anthracis
  MIC: > 64 µg/mL
Escherichia coli
  MIC: 16 µg/mL (≈ 80.5 µM)
Klebsiella pneumoniae
  MIC: 16 µg/mL (≈ 80.5 µM)
[2]
  MIC: > 64 µg/mL
Enterobacter cloacae
  MIC: 16 µg/mL (≈ 80.5 µM)
Pseudomonas aeruginosa
  MIC: > 64 µg/mL
Staphylococcus aureus
  MIC: > 64 µg/mL
Acinetobacter baumannii [3]
  MIC: ≤ 0.125 µg/mL
Salmonella enterica
  MIC: 64 µg/mL (≈ 322 µM)
[1]
  hemolysis at 1 h, 8 ug/ml: < 10%
Acinetobacter baumannii [4]
  MIC: ≤ 0.125 µg/mL
Erythrocyte
  Activity: Non-Toxic

## O=C(NNc1ccc(Cl)cc1)c1ncc(F)cc1F
HEK293
  Activity: Non-Toxic
[1]
  hemolysis at 1 h, 8 ug/ml: < 10%
Erythrocyte
  Activity: Non-Toxic

## O=C(NNc1cccc(F)c1)c1cc2ccccc2[nH]1
HEK293
  Activity: Non-Toxic
[1]
  hemolysis at 1 h, 8 ug/ml: < 10%
Erythrocyte
  Activity: Non-Toxic

## CCOC(=O)CNNC(=O)c1ccc(F)cc1F
HEK293
  Activity: Non-Toxic
[1]
  hemolysis at 1 h, 8 ug/ml: < 10%
Erythrocyte
  Activity: Non-Toxic

## O=C(NNc1cccc(F)c1)c1cccc(Br)n1
HEK293
  Activity: Non-Toxic
[1]
  hemolysis at 1 h, 8 ug/ml: < 10%
Erythrocyte
  Activity: Non-Toxic

## O=C(NNC1CCCCC1)c1cccnc1
HEK293
  Activity: Non-Toxic
[1]
  hemolysis at 1 h, 8 ug/ml: < 10%
Erythrocyte
  Activity: Non-Toxic

## COc1cccc(NNC(=O)c2ccccn2)c1
HEK293
  Activity: Non-Toxic
[1]
  hemolysis at 1 h, 8 ug/ml: < 10%
Erythrocyte
  Activity: Non-Toxic

## O=C(NNc1ccc(Cl)cc1)c1cnccn1
HEK293
  Activity: Non-Toxic
[1]
  hemolysis at 1 h, 8 ug/ml: < 10%
Erythrocyte
  Activity: Non-Toxic

## O=C(NNc1ccc(Cl)cc1)c1cccnc1
HEK293
  Activity: Non-Toxic
[1]
  hemolysis at 1 h, 8 ug/ml: < 10%
Erythrocyte
  Activity: Non-Toxic

## O=C(NNc1cccc(F)c1)c1ccc(F)cc1F
HEK293
  Activity: Non-Toxic
[1]
  hemolysis at 1 h, 8 ug/ml: < 10%
Erythrocyte
  Activity: Non-Toxic

## CCOC(=O)CNNC(=O)c1cccc(F)n1
HEK293
  Activity: Non-Toxic
[1]
  hemolysis at 1 h, 8 ug/ml: < 10%
Erythrocyte
  Activity: Non-Toxic

## O=C(NNc1cccc(F)c1)c1cnc2ccccc2n1
HEK293
  Activity: Non-Toxic
[1]
  hemolysis at 1 h, 8 ug/ml: < 10%
Erythrocyte
  Activity: Non-Toxic

## O=C(NNc1cccc(F)c1)c1cnccn1
HEK293
  Activity: Non-Toxic
[1]
  hemolysis at 1 h, 8 ug/ml: < 10%
Erythrocyte
  Activity: Non-Toxic

## CCOC(=O)CNNC(=O)c1cnccn1
HEK293
  Activity: Non-Toxic
[1]
  hemolysis at 1 h, 8 ug/ml: < 10%
Erythrocyte
  Activity: Non-Toxic
